Test results taken from patent US11390543B2, “Sterilization method” (NEWSOUTH INNOVATIONS PTY LIMITED, priority 2017, dated 2022).
Where “and” joins values, the source holds several entries; their conditions need not be identical. Equal entries are not always repeated. Where two headings read alike, the source gives them in different places.

What was measured:
[1] = system: Escherichia coli C-3000 (ATCC15597); assay: E. coli inactivation by bubbling gas through 0.17 M NaCl solution in bubble column evaporator, plaque assay; format: cell-based
[2] = system: MS2 bacteriophage (ATCC 15597-B1); assay: MS2 virus inactivation by bubbling gas through 0.17 M NaCl solution in bubble column evaporator, double layer plaque assay; format: cell-based; settings: for MS2 virus inactivation, log reduction: inlet gas temperature 200° C., after 37.5 min; for MS2 virus log reduction: as time approached 10 mins
Description: MS2 bacteriophage (ATCC 15597-B1) was chosen as the model virus to evaluate the efficiency of methods of inactivation of viruses. MS2 is usually quantified by counting infectious units via a standard plaque assay that is commonly used for detection of MS2 in treated drinking water and waste-water.
Analysis of virus inactivation was carried out using the optimized Double Layer Plaque Assay technique described in Cormier et al, that detects only infectious viruses by using E. coli as their host.
A specific optimized Double Layer Plaque Assay technique as described in Cormier et al was used to assess the concentration of active MS2 viruses. This plaque assay method is commonly used for detection of MS2 in treated drinking water, wastewater and marine water. The water quality is assessed based on the ability of bacteriophages to kill the host bacteria and allow phages to propagate in a confluent lawn of bacterial host cells immobilized in a layer of agar.
A freeze-dried vial of MS2 bacteriophage was acquired from the American Type Culture Collection. Bacteriophage MS2 (ATCC 15597-B1) was replicated using Escherichia coli C-3000 (ATCC 15597) according to the International Standard ISO 10705-1 [31] and the Ultraviolet disinfection guidance manual of the United States Environmental Protection Agency. The zeta-potential of the MS2 viruses in 0.17 M NaCl solution with different gas bubbles was measured using a Malvern Zetasizer nano series instrument.
The gases were pumped through the electrical heater that maintained the gas temperature just above the sinter surface at the base of the bubble column evaporator at a particular temperature, depending on the experiment. The base of the bubble column evaporator was fitted with a 40-100 μm pore size glass sinter (type 2) of 135 mm diameter.
Once the aqueous solution was poured into the column, the temperature of the solution was measured with a thermocouple in the centre of the column solution. The gas was then passed through the sinter into the 300 ml solution to inactivate MS2 viruses or E. coli (in separate experiments). […]
Further experiments were also performed using MS2 virus in a 0.17 M NaCl solution (initial temperature of about 22° C.) in the BCE, with CO2 gas at different inlet temperatures (205° C., 150° C., 100° C., 11° C. and 20° C.) and with CO2 gas having an inlet temperature of 22° C. at different flow rates (27 l/min and 20 l/min).
Once the solutions with known concentration of coliphage and E. coli were prepared, experiments were conducted to study the inactivation of the coliphage with different gases and inlet gas temperatures. 1.3 ml samples were collected from 10 to 15 mm above the central area of the sinter every 6 minutes during 36 minutes for the virus experiments and every 2 min for the E. coli experiments. 0.07 ml of each sample was spotted in triplicate following the double layer plaque assay technique.
Plaque counts were performed for all 18-21 plates of each of the experiments. The mean and the standard deviation of each triplicated sample using a virus or bacteria survival factor: Log10(PFU/PFU0), where PFU0 is the initial number of PFU per sample and PFU is the PFU per sample after an exposure time in minutes. When plotted, a second order polynomial distribution was applied to fit the survival curves.

[3] = cited from earlier work
[4] = pH of the solution measured during bubbling experiments; format: physicochemical; settings: for pH: […] NaCl
Description: The solubility at 52° C. (for viruses) and 43° C. (for E. coli) of the different gases used were obtained from literature values (http://www.engineeringtoolbox.com). The pH values were measured during the experiments and the Zeta potential values were measured during the experiments at a virus concentration of 10^8 per ml and E. coli concentration of 10^7 per ml.

[5] = system: E. coli; settings: cited from earlier work
[6] = system: MS2 virus; settings: 1 to 2 M of NaCl; cited from earlier work
[7] = system: E. coli; settings: pH 4.2, stirred beaker, […] NaCl, 22° C., no bubbling
Description: (§1) To evaluate the effect of solution pH on the inactivation of MS2 bacteriophage and E. coli experiments, comparison tests using 0.17 M NaCl solution at pH 4.1, were carried out in a separate beaker, in a water bath. During these experiments, samples were regularly taken out from the beaker and analysed as before.
(§2) To determine if the reduction in pH, due to dissolved CO2 (equations 1, 2, 3 and 4), was related to its disinfectant effects, two experiments with carbonic acid (H2CO3) at pH 4.2 were conducted in a continuous stirred beaker, one for viruses and another one for bacteria.
(§3) Carbonic acid (H2CO3) was produced by bubbling 27 l/min. of pure CO2 through the 0.17 M NaCl solution during 10 minutes at 22° C. […] Some authors describe a small, low pH inactivation effect on microbial cells, since membranes stop protons from penetration but low pH makes membrane more permeable to other substances like CO2 due to the chemical modification on the phospholipid bilayer of membranes.

[8] = system: MS2 bacteriophage; settings: pH 4.2, stirred beaker, […] NaCl, 22° C., no bubbling
Description: as §1, §2, §3

[9] = inlet gas temperature 150° C., after 10 min
[10] = in water at 43° C., 1 atm (E. coli section)
[11] = in water at 52° C., 1 atm (virus section)
[12] = E. coli experiments, gases at 150° C. (combustion gas 58° C.)
[13] = MS2 experiments, gases at 200° C. (combustion gas 60° C.)

N#N [Nitrogen]
E. coli inactivation, log reduction [1, 9]: 1.74 log and 1.5 log
MS2 virus inactivation, log reduction [2]: 1.5 log

[Ar] [Argon]
Solubility [3, 10]: 0.040 Grams dissolved in 1 Kg of wat
Solubility [3, 11]: 0.035 Grams dissolved in 1 Kg of wat
pH [4, 12]: 6.0
pH [4, 13]: 6.0
E. coli inactivation, log reduction [1, 9]: 0.40 log
MS2 virus inactivation, log reduction [2]: 1.5 log

O=C=O [Carbon dioxide]
Solubility [3, 10]: 0.950 Grams dissolved in 1 Kg of wat
Solubility [3, 11]: 0.800 Grams dissolved in 1 Kg of wat
pH [4, 12]: 4.0
pH [4, 13]: 4.0
pH of the water when using CO2 gas in the bubble column ([4]; dropped from 5.9 in less than 45 seconds): 4.2
E. coli inactivation, log reduction ([1]; inlet gas temperature 150° C., after 10 min, listed as CO2): 2.84 log and 2.6 log
MS2 virus log-reduction ([2]; 150° C. inlet CO2 temperature, after 7 min): 2.3 log
MS2 virus log-reduction ([2]; CO2 11° C. inlet temperature, 9° C. column temperature, after 6.5 minutes): 0.1 log
MS2 virus inactivation rate ([2]; CO2 (100%) at 200° C., in 3.5 minutes): 2.7 log
MS2 virus log-reduction ([2]; CO2 at 22° C., 20 l/min, after 2 minutes): 0.35 log
MS2 virus log reduction ([2]; CO2 at 22° C., 20 l/min): about 1 log
MS2 virus log-reduction ([2]; CO2 at 22° C., 27 l/min, after 2 minutes): 0.62 log
MS2 virus log reduction ([2]; CO2 at 22° C., 27 l/min): about 1 log
MS2 virus log-reduction ([2]; CO2 at 200° C., after 3 min): 3 log
MS2 virus log inactivation ([2]; CO2 at 200° C., within 5 min): 2.0 log
MS2 virus reduction ([2]; CO2 bubbles at room temperature, 10 min): 1 log

[Cl-].[Na+] [NaCl]
inactivation of E. coli by NaCl solutions [5]: do not inactivate E. coli
stability of MS2 virus in the presence of NaCl [6]: stable

O=O [Oxygen]
Solubility [3, 10]: 0.030 Grams dissolved in 1 Kg of wat
Solubility [3, 11]: 0.027 Grams dissolved in 1 Kg of wat
pH [4, 12]: 6.1
pH [4, 13]: 6
E. coli reduction ([1]; oxygen at 150° C. inlet gas temperature as printed): 0.65 log
E. coli inactivation, log reduction ([1]; oxygen bubbles at 150° C., after 3.5 minutes): 2.90 log
MS2 virus inactivation, log reduction [2]: 1.5 log

O=C(O)O [Carbonic acid (H2CO3), Carbonic acid]
E. coli log removal [7]: 0.08 log
log virus reduction [8]: 0.002 log
